Measured values published in publication PMC10900215 (JACS Au, 2024).
Values joined by “and” are separate entries in the source; they are usually repeats but may differ in a detail not shown here. Identical values can stand only once.

How the values were obtained:
[1] = biological target: T1, METTL3-14 (Homo sapiens, UniProt Q86U44); experiment: Cellular degradation assay (Western blot) in KASUMI-1; type: cell-based; set-up: METTL3–14 degradation up to 70% of the endogenous level; endogenous in cells; host or cells: MOLM-13, KASUMI-1, THP-1, NOMO-1; conditions: KASUMI-1, 2 μM, 24 h
Method: (§1) MOLM-13, NOMO-1, THP-1, Kasumi-1, PC3, and DU145 cell lines were obtained from DSMZ-German Collection of Microorganisms and Cell Cultures GmbH. Cells were cultured in RPMI 1640 medium (11875093, Thermo Fisher Scientific) containing 10% FBS (16140071, Thermo Fisher Scientific) and 1% penicillin-streptomycin (15140122, Thermo Fisher Scientific) in 5% CO2 at 37 °C in a humidified incubator, with maintained cell densities at 0.5–1 × 10^6 cells/mL. All cell lines were tested negative for mycoplasma contamination (PCR-based assay by Microsynth, Switzerland).
(§2) METTL3 (and METTL14) protein degradation was monitored by Western blot. Cells were treated with the indicated concentration of PROTACs or DMSO control (0.1% (v/v)) for 24h, 37 °C with 5% CO2. Samples were then collected and lysed with RIPA buffer with added protease inhibitors (11697498001, Roche). After SDS-PAGE, proteins were transferred to a nitrocellulose membrane, blocked (with 5% milk, 0.5% BSA in TBST buffer), and incubated overnight with primary antibodies. The following antibodies were used: GAPDH (no. 2118, Cell Signaling, 1:4000), β-actin (ab8226, Abcam, 1:2000), METTL3 (ab195352, Abcam, 1:1000), and METTL14 (ab220031, Abcam, 1:1000). Membranes were scanned using an LI-COR Odyssey DLx imager after incubation with appropriate secondary antibodies (antimouse IgG IRDye 680RD (926–68072, LI-COR, 1:10000) and goat anti-Rabbit IgG IRDye 800CW (926–32211, LI-COR, 1:10000)). Densitometry was performed in Image Studio Lite software and analyzed in GraphPad Prism 9.
Target sequence in this assay (Q86U44 2-580 limits assumed): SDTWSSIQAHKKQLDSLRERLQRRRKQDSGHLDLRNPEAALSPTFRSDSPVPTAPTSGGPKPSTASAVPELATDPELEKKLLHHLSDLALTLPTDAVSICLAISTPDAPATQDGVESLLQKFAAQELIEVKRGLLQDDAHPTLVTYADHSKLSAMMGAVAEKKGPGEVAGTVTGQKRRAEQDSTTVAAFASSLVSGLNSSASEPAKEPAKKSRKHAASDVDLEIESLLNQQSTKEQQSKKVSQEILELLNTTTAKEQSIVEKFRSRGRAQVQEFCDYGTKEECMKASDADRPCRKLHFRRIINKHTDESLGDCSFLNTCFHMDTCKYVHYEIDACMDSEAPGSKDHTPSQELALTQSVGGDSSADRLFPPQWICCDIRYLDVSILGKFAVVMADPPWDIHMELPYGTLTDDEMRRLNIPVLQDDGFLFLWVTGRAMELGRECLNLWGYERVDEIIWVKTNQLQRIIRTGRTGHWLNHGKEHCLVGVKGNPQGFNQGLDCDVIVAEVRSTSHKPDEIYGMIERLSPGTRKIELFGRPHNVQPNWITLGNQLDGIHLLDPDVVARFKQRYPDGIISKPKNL
Target sequence in this assay (Q9HCE5 whole entry partner): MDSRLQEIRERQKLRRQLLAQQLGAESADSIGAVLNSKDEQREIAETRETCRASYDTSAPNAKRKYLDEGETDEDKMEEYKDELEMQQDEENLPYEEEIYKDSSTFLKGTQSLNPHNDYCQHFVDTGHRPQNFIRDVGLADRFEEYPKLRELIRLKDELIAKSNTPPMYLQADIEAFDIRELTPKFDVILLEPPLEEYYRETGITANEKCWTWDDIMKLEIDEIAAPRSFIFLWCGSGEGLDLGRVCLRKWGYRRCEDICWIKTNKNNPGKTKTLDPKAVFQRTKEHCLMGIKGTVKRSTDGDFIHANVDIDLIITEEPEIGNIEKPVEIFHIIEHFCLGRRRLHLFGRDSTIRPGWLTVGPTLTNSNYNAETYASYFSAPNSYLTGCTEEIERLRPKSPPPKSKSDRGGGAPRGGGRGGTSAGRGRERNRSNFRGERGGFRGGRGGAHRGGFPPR

[2] = tested on: METTL14; experiment: Cellular degradation assay (Western blot), METTL14 in MOLM-13; type: cell-based, human; conditions: MOLM-13, 24 h, 2 μM compound
Summary of the method: (§3)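 Densitometric Western blot quantification of METTL3 and METTL14 protein gave the degradation read-out. Before lysis, cells had been incubated with PROTACs at the indicated concentrations for 24h at 37 °C, alongside a 0.1% DMSO vehicle.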

[3] = Cell viability assay (CellTiter-Glo) on MOLM-13; type: cell-based; conditions: human, MOLM-13 cells, average of two biological replicates; for viability at 72 h, […]: 2.5 µM
Summary of the method: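 MOLM-13 AML cells grown in RPMI 1640 with 10% FBS at 37 °C, 5% CO2. Viability read as ATP luminescence by CellTiter-Glo after 10 min at room temperature, with background from cell-free medium wells subtracted.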

[4] = tested on: PC3 cell line; experiment: Cell viability assay (CellTiter-Glo) on PC3; type: cell-based, human
Method: as §1
Cells were seeded in white clear-bottom 96-well plates at a density of 6–20 × 10^3 cells/well in 50 μL of the complete RPMI medium and treated with 50 μL of increasing concentrations of the indicated compounds dissolved in DMSO (final concentration of compounds 0.01–10 μM) or DMSO only as a negative control (0.01% (v/v)) and incubated for 72 h at 37 °C with 5% CO2. Cell viability was determined using a CellTiter-Glo luminescent cell viability assay (Promega) based on the detection of ATP according to the manufacturer’s instructions. 100 μL of the reagent was added to each well and incubated for 10 min at room temperature. The luminescence was recorded using a Tecan Infinite […] M1000 microplate reader from the top. Background luminescence value was obtained from wells containing the CellTiter-Glo reagent and medium without cells. The resulting data was analyzed in GraphPad Prism 9.

[5] = biological target: T1, METTL3-14; experiment: biochemical; set-up: with the full-length complex, the recombinant complex construct pFastBacDual-StrepII-GFP-TEV-METTL3-His-TEV-METTL14 was expressed; StrepII (N); GFP (N); TEV site (N); made in house; host or cells: baculovirus/Sf9 insect cells; conditions: inhibition of catalytic activity of METTL3-14, binary FRET assay
Summary of the method: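 Full-length human METTL3–METTL14 complex (StrepII-GFP-METTL3-His/METTL14) expressed in baculovirus/Sf9 cells and purified. Inhibition of METTL3 methyltransferase activity measured in a homogeneous time-resolved fluorescence (HTRF) enzyme assay; IC50 determined.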
Target sequence in this assay (Q86U44 whole entry): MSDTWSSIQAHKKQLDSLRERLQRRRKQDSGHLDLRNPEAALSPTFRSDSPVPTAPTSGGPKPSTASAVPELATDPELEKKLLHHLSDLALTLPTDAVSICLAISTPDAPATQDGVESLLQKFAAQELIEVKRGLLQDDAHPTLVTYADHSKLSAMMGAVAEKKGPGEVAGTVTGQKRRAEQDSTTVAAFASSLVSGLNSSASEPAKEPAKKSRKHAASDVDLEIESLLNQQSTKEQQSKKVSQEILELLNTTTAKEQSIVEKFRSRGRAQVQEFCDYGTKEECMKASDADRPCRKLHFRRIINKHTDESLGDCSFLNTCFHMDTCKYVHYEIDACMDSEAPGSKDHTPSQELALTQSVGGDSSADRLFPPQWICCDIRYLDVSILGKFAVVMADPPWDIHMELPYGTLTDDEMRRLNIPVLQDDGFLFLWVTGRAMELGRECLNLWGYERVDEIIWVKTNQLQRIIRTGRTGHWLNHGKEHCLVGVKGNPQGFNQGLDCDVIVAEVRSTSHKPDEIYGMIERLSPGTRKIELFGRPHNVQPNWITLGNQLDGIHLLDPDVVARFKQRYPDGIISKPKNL
Target sequence in this assay (Q9HCE5 whole entry, further chain): as the sequence (Q9HCE5 whole entry partner) above

[6] = biological target: T2, METTL3 (Homo sapiens, UniProt Q86U44); experiment: Cellular degradation assay (Western blot), METTL3 in MOLM-13; type: cell-based; conditions: for MOLM-13 West. blot at 24h 2 μM comp conc. Degradation (%) of METTL3: MOLM-13, 24 h, 2 μM compound
T2 construct: METTL3–14 degradation up to 70% of the endogenous level; endogenous in cells; host or cells: MOLM-13, PC3, DU145
T2 sequence (Q86U44 2-580 limits assumed): as the sequence (Q86U44 2-580 limits assumed) above
T2 sequence (Q9HCE5 whole entry partner): as the sequence (Q9HCE5 whole entry partner) above
Summary of the method: as §3

[7] = biological target: T2, METTL3; experiment: Cellular degradation assay (Western blot) in PC3; type: cell-based; conditions: PC3, 2 μM, 24 h
Method: as §1
as §2, with “Membranes were scanned using an LI-COR Odyssey DLx imager after incubation with appropriate secondary antibodies (antimouse IgG IRDye 680RD (926–68072, LI-COR, 1:10000) and goat anti-Rabbit IgG IRDye 800CW (926–32211, LI-COR, 1:10000)).” left out

[8] = tested on: m6A/A levels in polyadenylated RNA; experiment: UPLC-MS/MS quantification of m6A/A in polyadenylated RNA in MOLM-13; type: cell-based, human; conditions: MOLM-13, 2 μM, 24 h
Method: UPLC-MS/MS was performed as previously described.[28]
Briefly, MOLM-13 cells were seeded into 6 well plates at a density of 1 × 10^6 cells/mL in 2 mL of complete RPMI medium. Cells were treated with the indicated concentrations of compounds or DMSO control (final concentration 0.5% (v/v)) for 24 h. Following the incubation, cells were collected by centrifugation and washed once with PBS, and total RNA was extracted using 0.5 mL of GENEzol reagent according to the manufacturer’s instructions. The final volume of 50 μL of total RNA eluate was subjected to two rounds of purification using 25 μL of Sera-Mag magnetic oligo(dT) particles (Cytiva) per sample. The polyadenylated RNA was eluted with nuclease-free water in a final volume of 25 μL, and its concentration was determined using NanoDrop. One hundred nanograms of mRNA were digested to nucleosides and dephosphorylated in a one-pot reaction using 0.5 μL of nucleoside digestion mix (M0649S, NEB) in 25 μL of total reaction volume for 4 h at 37 °C. The samples were used for UPLC-MS/MS analysis without further purification steps. The data were plotted by using GraphPad Prism 9.

| Compound | degradation of both METTL3 and METTL14 relative to MOLM-13 [1] | MOLM-13 West. blot at 24h 2 μM comp conc. Degradation (%) of METTL14 [2] | viability at 72 h, 0.6 µM [3] [%] | viability at 72 h, 1.25 µM [3] [%] | viability at 72 h, […] [3] [%] | viability at 72 h, 5 µM [3] [%] | viability at 72 h, 10 µM [3] [%] | antiproliferative effect [4] | IC50 [5] [nM] | MOLM-13 West. blot at 24h 2 μM comp conc. Degradation (%) of METTL3 [6] | METTL3 reduction at highest effect in concentration dependence ([6]; MOLM-13, 1 μM) | reduction of METTL3 [7] [%] | m6A/A levels [8] | degradation of the POI [1] [%] |
| --- | --- | --- | --- | --- | --- | --- | --- | --- | --- | --- | --- | --- | --- | --- |
| CC1(C)CCN(Cc2cc(F)c(N3CC(=O)NC4(CCN(c5cc(NCC6CCN(C(=O)CCCCCNc7cccc8c7C(=O)N(C7CCC(=O)NC7=O)C8=O)CC6)ncn5)CC4)C3)cc2F)CC1 (stereo not drawn) [Compound 24] | higher degradation | 50 ± 13% | 102 | 95.2 | 109 | 104 | 91 | antiproliferative effect | 58 ± 12 | 36% and 36 ± 9% | – | – | – | – |
| CC1(C)CCN(Cc2cc(F)c(N3CC(=O)NC4(CCN(c5cc(NCc6cccc(CNC(=O)CCCNc7cccc8c7C(=O)N(C7CCC(=O)NC7=O)C8=O)c6)ncn5)CC4)C3)cc2F)CC1 (stereo not drawn) [Compound 14] | higher degradation | 52% and 52 ± 6% | 95.5 | 97.5 | 103 | 102 | 94.1 | – | 11 ± 1 | 52% and 52 ± 8% | around 50% | – | – | – |
| CC1(C)CCN(Cc2cc(F)c(N3CC(=O)NC4(CCN(c5cc(NCC6CCN(C(=O)CCCNc7cccc8c7C(=O)N(C7CCC(=O)NC7=O)C8=O)CC6)ncn5)CC4)C3)cc2F)CC1 (stereo not drawn) [Compound 22] | higher degradation | 55 ± 11% | 95.8 | 97.8 | 96.2 | 88.4 | 77.4 | antiproliferative effect | 11 ± 1 | 46% and 46 ± 6% | – | 64 | slight reduction | – |
| CC1(C)CCN(Cc2cc(F)c(N3CC(=O)NC4(CCN(c5cc(NCc6cccc(CNC(=O)CCCCCCCCCCn7cc(CNc8cccc9c8C(=O)N(C8CCC(=O)NC8=O)C9=O)nn7)c6)ncn5)CC4)C3)cc2F)CC1 (stereo not drawn) [Compound 20] | higher degradation | 51% and 51 ± 10% | 101 | 94.6 | 90.7 | 89.5 | 86.4 | – | 200 ± 30 | 42% and 42 ± 13% | – | 48 | – | – |
| CC1(C)CCN(Cc2cc(F)c(N3CC(=O)NC4(CCN(c5cc(NCCN6CCN(C(=O)CCCCCNc7cccc8c7C(=O)N(C7CCC(=O)NC7=O)C8=O)CC6)ncn5)CC4)C3)cc2F)CC1 (stereo not drawn) [Compound 30] | higher degradation | – | 91.3 | 90.9 | 91.1 | 82.5 | 78.4 | antiproliferative effect | 27 ± 6 | – | – | – | – | 70 |
